We go through 15 molecules from patent US8877769B2, “Heteroaryl-substituted urea modulators of fatty acid amide hydrolase” (Janssen Pharmaceutica NV, priority 2008, dated 2014).

The structures appear in SMILES notation.

The subject of test [1] is spasticity. To be noted: CREAE mice; cited from earlier work.
Test [2] relates to neuropathic pain. To be noted: rats; Chung spinal nerve ligation model; cited from earlier work.
Test [3] concerns acute thermal nociception. To be noted: rats; Hargraves test; cited from earlier work.
Test [4] deals with T1, Rat FAAH (Rattus norvegicus, UniProt P97612).
T1 construct: expressed in transfected cells
T1 sequence (P97612 1-579): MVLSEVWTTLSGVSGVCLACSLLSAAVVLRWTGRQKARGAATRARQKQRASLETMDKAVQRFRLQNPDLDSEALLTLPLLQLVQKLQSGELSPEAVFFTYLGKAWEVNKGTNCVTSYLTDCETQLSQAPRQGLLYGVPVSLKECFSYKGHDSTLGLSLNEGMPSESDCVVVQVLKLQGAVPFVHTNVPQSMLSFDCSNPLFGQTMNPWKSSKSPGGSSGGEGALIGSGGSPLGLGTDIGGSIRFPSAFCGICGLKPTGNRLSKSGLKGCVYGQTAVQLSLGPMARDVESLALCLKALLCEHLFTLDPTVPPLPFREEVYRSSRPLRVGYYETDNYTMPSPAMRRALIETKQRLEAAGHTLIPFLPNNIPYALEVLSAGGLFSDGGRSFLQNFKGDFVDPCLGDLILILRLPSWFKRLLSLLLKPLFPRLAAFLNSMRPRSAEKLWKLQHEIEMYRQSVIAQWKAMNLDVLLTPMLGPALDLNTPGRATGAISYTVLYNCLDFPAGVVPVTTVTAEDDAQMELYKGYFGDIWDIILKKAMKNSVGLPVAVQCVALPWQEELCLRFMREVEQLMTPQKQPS
Kind of test: Assay Method 2: FAAH assay, 3H-anandamide hydrolysis in cell homogenate. It counts as biochemical. To be noted: average of results obtained, > value = solubility limit or highest concentration tested.

In test [5] the target is T2, FAAH (Homo sapiens, UniProt O00519).
T2 sequence (O00519 1-579): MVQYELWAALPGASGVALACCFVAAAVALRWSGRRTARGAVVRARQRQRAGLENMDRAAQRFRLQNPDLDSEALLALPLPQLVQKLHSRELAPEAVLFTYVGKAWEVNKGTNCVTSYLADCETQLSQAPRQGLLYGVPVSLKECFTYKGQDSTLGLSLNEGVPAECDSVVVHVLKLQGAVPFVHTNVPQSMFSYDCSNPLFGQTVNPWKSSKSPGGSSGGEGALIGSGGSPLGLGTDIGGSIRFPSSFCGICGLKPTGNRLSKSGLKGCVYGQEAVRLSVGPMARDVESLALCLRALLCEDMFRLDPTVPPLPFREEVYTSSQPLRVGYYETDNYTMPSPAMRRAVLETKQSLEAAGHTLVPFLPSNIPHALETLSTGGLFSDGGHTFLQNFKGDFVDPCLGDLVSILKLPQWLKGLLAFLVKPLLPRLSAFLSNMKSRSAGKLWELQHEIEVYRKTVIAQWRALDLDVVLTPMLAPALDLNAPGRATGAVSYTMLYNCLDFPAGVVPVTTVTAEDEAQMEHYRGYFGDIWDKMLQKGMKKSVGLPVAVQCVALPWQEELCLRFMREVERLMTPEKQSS
Kind of test: Assay Method 1: FAAH assay, 3H-anandamide hydrolysis in cell homogenate.

The test system of test [6] is thermal nociception. Particulars: rat hot plate test; cited from earlier work.
In test [7] the target is T2, FAAH. Particulars: cited from earlier work.
The test system of test [8] is thermal nociception. To be noted: rats; tail emersion test; cited from earlier work.
Test [9] relates to anxiety. To be noted: rats; zero plus maze; cited from earlier work.
The conditions of test [10]: rat formalin test; cited from earlier work.

Regarding `CCCCCCCCCCCCCCCCS(=O)(=O)F` [AM374], the reduction of spasticity result in [1] was “significantly reduce spasticity”.
With `Cc1nc(-c2ccccc2)c(-c2ccccc2)n1CCCCCCNC(=O)Oc1ccccc1F` [BMS-1], the analgesic effect entry in [2] and in test [3] was “analgesic effect” in each case.
As for `O=C(Nc1cccc2nccn12)N1CCN(Cc2ccc3c(c2)OC(F)(F)O3)CC1` [Example 71, 4-(2,2-Difluoro-benzo[1,3]dioxol-5-ylmethyl)-piperazine-1-carboxylic acid imidazo[1,2-a]pyridin-5-ylamide], the 50% inhibitory concentration (IC50) in test [4] and in test [5] was 0.14 µM in each case.
As to `O=C(Nc1ccn2ccnc2c1)N1CCN(Cc2ccc3c(c2)OC(F)(F)O3)CC1` [Example 73, 4-(2,2-Difluoro-benzo[1,3]dioxol-5-ylmethyl)-piperazine-1-carboxylic acid imidazo[1,2-a]pyridin-7-ylamide], the IC50 in test [4] stood at 1.6 µM; in [5] it was 1.4 µM.
The like results for `N#Cc1cccnc1Oc1cccc(CN2CCN(C(=O)Nc3cnc4[nH]ccc4c3)CC2)c1` [Example 77, 4-[3-(3-Cyano-pyridin-2-yloxy)-benzyl]-piperazine-1-carboxylic acid (1H-pyrrolo[2,3-b]pyridin-5-yl)-amide] were, in that order, 2 µM and 0.048 µM.
The like results for `N#Cc1ccnc(Oc2cccc(CN3CCN(C(=O)Nc4cnc5[nH]ccc5c4)CC3)c2)c1` [Example 78, 4-[3-(4-Cyano-pyridin-2-yloxy)-benzyl]-piperazine-1-carboxylic acid (1H-pyrrolo[2,3-b]pyridin-5-yl)-amide] were, in that order, 5 µM and 0.084 µM.
In the same order, the values of `N#Cc1ccc(Oc2cccc(CN3CCN(C(=O)Nc4cnc5[nH]ccc5c4)CC3)c2)nc1` [Example 79, 4-[3-(5-Cyano-pyridin-2-yloxy)-benzyl]-piperazine-1-carboxylic acid (1H-pyrrolo[2,3-b]pyridin-5-yl)-amide] are 0.27 µM and 0.022 µM.
Turning to `O=C(Nc1cnc2[nH]ccc2c1)N1CCN(Cc2cccc(Oc3ccc(C(F)(F)F)nn3)c2)CC1` [Example 80, 4-[3-(6-Trifluoromethyl-pyridazin-3-yloxy)-benzyl]-piperazine-1-carboxylic acid (1H-pyrrolo[2,3-b]pyridin-5-yl)-amide], the IC50 in test [4] was determined as 0.18 µM; in [5] it was 0.003 µM.
In the case of `O=C(Nc1cnc2[nH]ccc2c1)N1CCC(Cc2ccc(Cl)c(Cl)c2)CC1` [Example 81, 4-(3,4-Dichloro-benzyl)-piperidine-1-carboxylic acid (1H-pyrrolo[2,3-b]pyridin-5-yl)-amide], the IC50 in test [4] and in [5] was 0.003 µM in each case.
Turning to `O=C(Nc1cnc2ccccn12)N1CCC(Cc2ccc(Cl)c(Cl)c2)CC1` [Example 82, 4-(3,4-Dichlorobenzyl)-N-imidazo[1,2-a]pyridin-3-ylpiperidine-1-carboxamide], the IC50 in [4] is 0.8 µM; in test [5], 0.9 µM.
For `O=C(Nc1cnc2cccnn12)N1CCC(Cc2ccc(Cl)c(Cl)c2)CC1` [Example 83, 4-(3,4-Dichlorobenzyl)-N-imidazo[1,2-b]pyridazin-3-ylpiperidine-1-carboxamide], the results for the IC50 in test [4] and in [5] were 0.03 µM and 0.015 µM, respectively.
In the same order, the values of `O=C(Nc1nocc1Cl)N1CCC(Cc2cnc3ccccc3c2)CC1` [Example 84, 4-Quinolin-3-ylmethyl-piperidine-1-carboxylic acid (4-chloro-isoxazol-3-yl)-amide] are 0.035 µM and 0.014 µM.
The like results for `O=C(Nc1nocc1Cl)N1CCN(Cc2ccc3c(c2)OC(F)(F)O3)CC1` [Example 86, 4-(2,2-Difluoro-benzo[1,3]dioxol-5-ylmethyl)-piperazine-1-carboxylic acid (4-chloro-isoxazol-3-yl)-amide] were, in that order, 0.28 µM and 0.073 µM.
Turning to `O=C(CCCCCCc1ccccc1)c1ncc(-c2ccccn2)o1` [OL-135], the “analgesic efficacy / activity” value in [6] is “analgesic activity”. In [7], the “inhibition of FAAH” value is “potent inhibitor”. The analgesic activity result in test [8] is on record as “analgesic activity”.
Turning to `NC(=O)c1cccc(-c2cccc(OC(=O)NC3CCCCC3)c2)c1` [URB-597], the “efficacy in anxiety model” value in test [9] was “efficacy”. Also, the “analgesic efficacy / activity” value in [6] was “analgesic efficacy”. The analgesic efficacy result in [10] is “analgesic efficacy”.

Usually IC50 stands for the concentration at which inhibition is half-maximal. Low readings indicate higher potency, high ones lower potency.
